# In patent US11260083B2, “Compositions and methods for treating and preventing graft versus host disease” (The Regents of the University of Michigan, priority 2016, dated 2022):
# Key:
# [1] = tested on: allogeneic (C57BL/6J→BALB/c) BMT recipients; experiment: MHC-mismatched allo-BMT GVHD model with intragastric butyrate; type: in vivo, mouse
# Protocol: BMTs were performed as previously described (Reddy, P. et al. A crucial role for antigen-presenting cells and alloantigen expression in graft-versus-leukemia responses. Nat. Med. 11, 1244-1249 (2005); 15). Briefly, syngeneic (BALB/c→BALC/c or C57BL/6J→C57BL/6J) and allogeneic (C57BL/6J→BALB/c or C3H.sw→C57BL/6J) recipients received lethal irradiation. On day −1, BALB/c recipients received a total of 800 cGy of irradiation (split dose separated by 3 hours) and B6 animals received a single dose of 1000 cGy. Donor splenic CD90.2+ T cells were magnetically separated using an autoMACs (Miltenyi Biotec; Bergisch Gladbach, Germany) and 0.5×10^6 to 2.5×10^6 T cells were transferred to BALB/c and C57BL/6J recipients. 5×10^6 donor whole or TCD bone marrow was transferred to all recipients. Survival was monitored daily and the recipient body weight and GVHD clinical scores were determined weekly, as described previously42. Histopathologic analysis of the gastrointestinal (GI) tract was performed as described (Reddy, P. et al. A crucial role for antigen-presenting cells and alloantigen expression in graft-versus-leukemia responses. Nat. Med. 11, 1244-1249 (2005)). Animals received vehicle (sterile PBS, 0.0004 g Na+ per dose) or sodium butyrate (10 mg/kg, 0.00004 g Na+ per dose) by flexible 20G-1.5″ intragastric gavage needle daily for 1 week, then every other day thereafter.
# Systemic administration of HDACi decreases acute GVHD (Reddy, P. et al. Histone deacetylase inhibitor suberoylanilide hydroxamic acid reduces acute graft-versus-host disease and preserves graft-versus-leukemia effect. Proc Natl Acad Sci USA 101, 3921-3926 (2004); Reddy, P. et al. Histone deacetylase inhibition modulates indoleamine 2,3-dioxygenasedependent DC functions and regulates experimental graft-versus-host disease in mice. J. Clin. Invest. 118, 2562-2573 (2008); Sun, Y. et al. Cutting edge: Negative regulation of dendritic cells through acetylation of the nonhistone protein STAT-3. J Immunol 182, 5899-5903 (2009)). It was therefore determined if increasing local levels of endogenous HDACi, butyrate, would impact GVHD severity. Again using the C57BL/6J into Balb/c model, vehicle control or butyrate was administered via daily intragastric gavage for one week, followed by administration every other day for the remainder of the experiment. […] Next, to further evaluate the magnitude of the butyrate-induced protective effect, GVHD mortality was determined utilizing the MHC disparate B6 into BALB/c model.
# GI-barrier = experiment: FITC-dextran assay (intestinal permeability); type: in vivo, mouse; conditions: 21 days following transplant; butyrate-treated vs vehicle allo-BMT recipients
# Protocol: Food and water was withheld from all mice for four hours on day 21 post bone marrow transplant. FITC-dextran (Sigma-Aldrich; St. Louis, Mo.) was administered by 20G-1.5″ flexible intragastric gavage needle (Braintree Scientific; Braintree, Mass.) at a concentration of 50 mg/ml in PBS. BMT recipients received 800 mg/kg (˜16 mg/mouse). Four hours later, serum was collected from peripheral blood, diluted 1:1 with PBS, and analyzed on a plate reader at excitation/emission wavelength of 485 nm/535 nm. Concentrations of FITCdextran experimental samples were determined based on a standard curve.
# Intestinal permeability after allo-BMT was assessed by intragastric administration of FITC-dextran, a non-metabolized carbohydrate (Hanash, A. M. et al. Interleukin-22 protects intestinal stem cells from immune-mediated tissue damage and regulates sensitivity to graft versus host disease. Immunity 37, 339-350 (2012)).
# primary C57BL/6J IECs = experiment: CTL assay: allogeneic CD8+ T cell killing of IECs; type: cell-based, mouse; conditions: butyrate pre-treated overnight, vs control
# Protocol: CD8+ T cells were isolated from Balb/c (H-2d) mice using anti-CD8 microbeads and LS columns (Miltenyi Biotec) following the manufacturer's instructions. CD8+ T cells were primed in the presence of irradiated (30 Gy) C57BL/6J (H-2b) splenocytes for 6 days prior to culture with primary IECs for 6 h and 16 h. Primary C57BL/6J IECs were harvested and incubated overnight in the presence or absence of butyrate 1 mM in gelatin coated (Cell Biologics Inc.; Chicago, Ill.) 100 mm-culture dishes (Fisher Scientific).
# The potential mechanisms that contribute to butyrate-induced protection from severe GVHD were explored. Because (a) butyrate is decreased in IECs, (b) administration of butyrate mitigated GI GVHD independent of Treg cells, but (c) improved junction integrity, it was explored whether butyrate had direct effects on protecting IECs from allo-T cell mediated damage and conditioning. IECs were treated ex vivo with vehicle or butyrate for 24 hours irradiation (6 Gy) or no-irradition, followed by 24 hours of additional incubation with butyrate was performed. […] The ability of butyrate-treated IECs to withstand damage mediated by alloreactive T cells was determined by isolating and culturing primary IECs with butyrate or vehicle control, overnight. […] Because butyrate is a primary energy source for IECs 1-13, it was next determined whether butyrate enhances survival and growth of IECs in vitro. […]
# intestinal organoids = experiment: Intestinal organoid culture with butyrate; type: cell-based, mouse
# Protocol: The potential mechanisms that contribute to butyrate-induced protection from severe GVHD were explored. Because (a) butyrate is decreased in IECs, (b) administration of butyrate mitigated GI GVHD independent of Treg cells, but (c) improved junction integrity, it was explored whether butyrate had direct effects on protecting IECs from allo-T cell mediated damage and conditioning. IECs were treated ex vivo with vehicle or butyrate for 24 hours irradiation (6 Gy) or no-irradition, followed by 24 hours of additional incubation with butyrate was performed. […] The ability of butyrate-treated IECs to withstand damage mediated by alloreactive T cells was determined by isolating and culturing primary IECs with butyrate or vehicle control, overnight. The pre-treated IECs were next co-cultured with primed allogeneic CD8+ T cells, in the absence of butyrate. […] Because butyrate is a primary energy source for IECs 1-13, it was next determined whether butyrate enhances survival and growth of IECs in vitro. To this end, intestinal organoids were cultured in the presence or absence of butyrate. […] Next, the impact of butyrate on IEC junctional function in the organoid cultures was confirmed by determining the mRNA expression of claudins (FIG. 5E).
# IECs = experiment: qPCR of butyrate treated IECs in vitro; type: cell-based, mouse
# Protocol: mRNA was isolated from samples using RNeasy kit following manufacturers instructions (Qiagen; Venlo, Netherlands). Using 1 μg of each mRNA template, cDNA was synthesized using SuperScript VILO (Invitrogen; Carlsbad, Calif.). qPCR primers were designed for murine targets. All primers were verified for the production of a single specific PCR product using a melting curve program and are shown below in Table 2.
# It was hypothesized that butyrate would increase anti-apoptotic genes by modulation of histone acetylation. […] It was also determined if the restored acetylation of histone H4 observed in butyrate-treated allo-BMT recipients was responsible for increased BCL-B (Bcl2110) and JAM (F11r) expression via ChIP.
# [2] = intragastric butyrate daily 1 week then every other day, vs vehicle
# [3] = IECs following butyrate treatment
smiles,measurement,setting,value
"CCCC(=O)[O-].[Na+] [butyrate, sodium butyrate]",histological scores in the intestines,"[1]; 21 days following BMT, major MHC mismatch model",decreased histological scores
same,GVHD mortality / survival,"[1]; B6 into BALB/c, higher doses of T cells",significant GVHD survival benefit
same,GVHD clinical scores,[1]; [2],decreased
same,survival,[1]; [2],increased survival
same,weight loss,[1]; [2],decreased weight loss
same,detectable FITC-dextran in the serum,GI-barrier,significantly less
same,IECs succumbing to CD8+ T cell killing,primary C57BL/6J IECs; 6 hours co-culture,Fewer butyrate pre-treated IECs succumbed
same,IECs succumbing to CD8+ T cell killing,primary C57BL/6J IECs; 16 hours co-culture,Fewer butyrate pre-treated IECs succumbed
same,organoid size,intestinal organoids; culture in the presence of butyrate,significantly increased
same,"mRNA expression of claudins (Cldn1, Cldn5, Cldn6, Cldn10, Cldn11, Cldn13, Cldn14, Cldn17, Cldn18)",intestinal organoids; organoids cultured with butyrate,significantly increased
same,mRNA expression of JAM (F11r),IECs; [3],significantly increased
same,mRNA expression of occludin (Ocln),IECs; [3],significantly increased
same,Bakl mRNA expression,IECs; butyrate treated IECs,significantly decreased
same,Bax mRNA expression,IECs; butyrate treated IECs,significantly decreased
same,transcripts of BCL-B (Bcl2110),IECs; butyrate treated IECs,significantly increased
